From patent publication US9463256B2, “Pretargeting kit, method and agents used therein” (KONINKLIJKE PHILIPS N.V., priority 2010, dated 2016)

How the values were obtained:
[1] = Reactivity of tetrazines, competition experiment against reference tetrazine; type: physicochemical; conditions: reference 3-(5-acetamido-2-pyridyl)-6-(2-pyridyl)-1,2,4,5-tetrazine; reaction with 10b
Protocol: A competition experiment was performed to determine the reactivity ratio of a specific tetrazine and 3-(5-acetamido-2-pyridyl)-6-(2-pyridyl)-1,2,4,5-tetrazine (that was chosen as the reference tetrazine), in the inverse-electron demand Diels-Alder reaction with trans-cyclooct-4-ene-1-ol (minor isomer, 10b).
To acetonitrile (0.100 mL) was added 5 μL of a solution of the specific tetrazine in DMSO (25 mM) and 5 μL of a solution of the reference tetrazine in DMSO (25 mM). This mixture was diluted with water (0.9 mL), and the absolute amounts of both tetrazines were determined by LC-MS/PDA analysis. Subsequently, a solution of trans-cyclooct-4-ene-1-ol (minor isomer, 10b) in DMSO (25 μL 2.5 mM) was added, and the mixture was stirred for 5 min. Again, the absolute amounts of both tetrazines were determined by LC-MS/PDA analysis, and conversions for both tetrazines was calculated. From these conversions, the reactivity ratio of both tetrazines was determined.

[2] = Second order kinetic constants of the reactions between CC49-TCO constructs and ^177Lu-28; type: physicochemical; conditions: TCO conjugated to CC49, reaction with ^177Lu-28 in PBS, pH 7.4 at 37° C.
Protocol: Typically, 1 mg CC49 (5 mg/mL solution in PBS) was modified with 0.6 molar (for kinetic measurements) or 10 molar eq. (for in vivo studies) of TCO-NHS constructs in a total volume of 250 μL PBS. The pH was adjusted to 9 with 1 M sodium carbonate buffer. The reactions were carried out under agitation for 30 min at RT in the dark. Subsequently, the TCO-modified mAbs were extensively washed with PBS using Amicon Ultra-15 centrifugal devices. The numbers of TCO groups per antibody were determined with a tetrazine titration, outlined below.
Tetrazine-DOTA 28 was radiolabeled with carrier-added ^177Lu. mAb (25 μg) modified with ca. 0.6 molar eq. TCO was reacted with 3 molar eq. of ^177Lu-28 (0.5 nM). mAb (25 μg) modified with ca. 10 molar eq. TCO was reacted with 15 molar eq. of ^177Lu-28 (2.5 nM). The reactions were carried out in 50 μL PBS pH 7.4 at 37° C. for 10 min. The reaction mixtures were analyzed by SDS-PAGE and phosphor imager and the reaction yields were determined from the radioactivity in the bands corresponding to the mAb. The counts were quantified with AIDA Image Analyzer software (Raytest).
Tetrazine-DOTA 28 was radiolabeled with carrier-added ^177Lu at a specific activity of 3 MBq/μg. ^177Lu-28 (33 nM) was reacted with increasing concentrations of CC49 modified with 1 eq. of TCO (0.33, 1, and 1.67 μM) in 200 μL PBS, pH 7.4 at 37° C. for 5 min. At selected times (15, 30, 45, 60, 90, 120, 180, and 300 sec) a 20 μL sample was withdrawn and quenched with tetrazine 6 (FIG. 5; described in Rossin et al. Angew Chem Int Ed 2010, 49, 3375) (1.5 μL, 5 mg/mL in DMF). Aliquots of each mixture were analyzed by SDS-PAGE and phosphor imager and the cycloaddition yields were determined from the radioactivity in the bands corresponding to the mAb. The counts were quantified with AIDA Image Analyzer software (Raytest).
The newly synthesized TCO constructs were evaluated with respect to their reactivity towards tetrazine 28. The procedures are described in Example 5.

[3] = Trans-cyclooctene stability in vivo (blood samples reacted with excess ^111In-tetrazine 28); parameters: species or system mice; conditions: tumor-free mice, up to 4 days post injection
Protocol: Tumor-free mice (n=3 per group) were injected intravenously with CC49-PEG10-TCO-O major (CC49-23a; 8.4 TCO per CC49; 300 μg/100 μL per mouse), CC49-PEG10-TCO-C minor (CC49-27b; 3.3 TCO per CC49, […]), and CC49-TCO-O major without spacer (CC49-20a; 8.0 TCO per CC49, 300 μg/100 μL per mouse). At selected time points (from 1 hour up to 4 days post injection) blood samples were withdrawn from the vena saphena and collected in vials containing heparin. The blood samples were weighed and an excess ^111In-tetrazine 28 was added. After 20 min incubation at 37° C., blood aliquots were 10-fold diluted with PBS and analyzed by SDS-PAGE. The cycloaddition yields were determined from the radioactivity in the bands corresponding to the mAb and the counts were quantified with AIDA Image Analyzer software. The amount of mAb present in blood at each time point (% ID/g blood) was evaluated in three separate groups of mice (n=3), which were injected with the corresponding ^125I—CC49-TCO (300 μg/100 μL per mouse, ca. 0.2 MBq). The data, corrected for mAb clearance, were normalized to 100% ID TCO at t=0.
This experiment was carried out to expand the series of in vivo TCO stability measurements described in Example 6. […] In the new experiment, following the same procedure, we tested the in vivo stability of a CC49-bound TCO minor without PEG spacer (20b, 6.9 equivalents bound).

[4] = In vitro reaction yields of CC49-bound TCO with tetrazine probe 28 at low concentration; type: physicochemical; conditions: TCO conjugated to CC49; 1 min at 37° C. in PBS; micromolar concentrations and lower
Protocol: To this aim we used a TCO major 20a (k2=19600±1400 M^−1s^−1) and a TCO minor 20b (k2=136700±2300 M^−1s^−1) conjugated to CC49 (6.1 and 6.6 TCOs per molecule for major and minor, respectively). The two mAb solutions were diluted in PBS to obtain TCO concentrations ranging from 1×10^−5M to 1×10^−8M and were reacted with carrier-added ^177Lu-tetrazine (1 eq. with respect to mAb) for 1 min at 37° C. Aliquots of the reaction mixtures (20 μl) where then quenched with an excess of tetrazine 6, added with non-reducing sample buffer and analyzed by SDS-PAGE. The cycloaddition yields were determined from the radioactivity in the bands corresponding to the mAb and the counts were quantified with the AIDA Image Analyzer software. The experiments were repeated in triplicate. As expected for a bimolecular reaction, a decrease in the concentration of the two reactive species in solution translates into lower reaction yields after 1 min incubation (FIG. 18).

SMILES	k2/k2 ref [1]	Second order kinetic constant, PEG10 Spacer [2]	in vivo stability of CC49-bound TCO (reactive TCO in blood, corrected for mAb clearance) [3]	reaction yields with ^177Lu-tetrazine versus equatorial TCO 20a [4]
c1cc(-c2nnc(-c3ccncc3)nn2)ccn1 [compound 42, 3,6-Bis(4-pyridyl)-1,2,4,5-tetrazine]	0.83			
O=C(CCOCCOCCOCCOCCOCCOCCOCCOCCOCCOCCOCCOCCNC(=O)c1ccc(COC2CC/C=C/CCC2)cc1)ON1C(=O)CCC1=O (stereo not shown) [23a, (E-major)-2,5-Dioxopyrrolidin-1-yl 1-(4-((cyclooct-4-en-1-yloxy)methyl)phenyl)-1-oxo-5,8,11,14,17,20,23,26,29,32,35,38-dodecaoxa-2-azahentetracontan-41-oate]		(23a) 16500 ± 1400 M^−1s^−1	unstable in vivo	
CCCC(=O)Nc1ccc(-c2nnc(-c3ccc(C(F)(F)F)cn3)nn2)nc1 [compound 35, 3-(5-Butyramido-2-pyridyl)-6-(5-(trifluoromethyl)-2-pyridyl)-1,2,4,5-tetrazine]	1.84			
Cc1nnc(-c2ccccn2)nn1 [compound 40, 3-(2-Pyridyl)-6-methyl-1,2,4,5-tetrazine]	0.25			
CCCC(=O)Nc1ccc(-c2nnc(-c3ccc(F)cn3)nn2)nc1 [compound 38, 3-(5-Fluoro-2-pyridyl)-6-(5-butanamido-2-pyridyl)-1,2,4,5-tetrazine]	0.95			
O=C(CCOCCOCCOCCOCCOCCOCCOCCOCCOCCOCCOCCOCCNC(=O)c1ccc(NC(=O)OC2CC/C=C/CCC2)cc1)ON1C(=O)CCC1=O (stereo not shown) [27b, (E-minor)-2,5-dioxopyrrolidin-1-yl 1-(4-(((cyclooct-4-en-1-yloxy)carbonyl)amino)phenyl)-1-oxo-5,8,11,14,17,20,23,26,29,32,35,38-dodecaoxa-2-azahentetracontan-41-oate]		(27b) 111600 ± 1800 M^−1s^−1	unstable in vivo	
O=C(ON1C(=O)CCC1=O)c1ccc(COC2CC/C=C/CCC2)cc1 (stereo not shown) [20b, (E-minor)-2,5-Dioxopyrrolidin-1-yl 4-((cyclooct-4-enyloxy)methyl)benzoate]			only slowly degrade in vivo	significantly higher
